Measured values from ChEMBL document CHEMBL5537172 (J Med Chem, 2024).
The source made the active and inactive calls. No cut-off for these calls is given here.

Assays:
[1] = target: 5-hydroxytryptamine receptor 2B (Homo sapiens, UniProt P41595); experiment: Agonist activity at 5HT2B (unknown origin); type: toxicity
[2] = Dissociation constant, pKa of compound; type: physicochemical
cells = conditions: Homo sapiens, 92-1, 72 h
[3] = target: Protein kinase C alpha type (Homo sapiens, UniProt P17252); experiment: Inhibition of PKCalpha (unknown origin) incubated for 15 mins in presence of 33P-ATP by Topcount scintillation counting method
[4] = target: T1, Protein kinase C theta type (Homo sapiens, UniProt Q04759); experiment: Inhibition of PKCtheta (unknown origin) incubated for 15 mins in presence of 33P-ATP by Topcount scintillation counting method
[5] = target: T2, Receptor-type tyrosine-protein kinase FLT3 (Homo sapiens, UniProt P36888); experiment: Inhibition of FLT3 (unknown origin); type: toxicity
T2 sequence (P36888 whole entry): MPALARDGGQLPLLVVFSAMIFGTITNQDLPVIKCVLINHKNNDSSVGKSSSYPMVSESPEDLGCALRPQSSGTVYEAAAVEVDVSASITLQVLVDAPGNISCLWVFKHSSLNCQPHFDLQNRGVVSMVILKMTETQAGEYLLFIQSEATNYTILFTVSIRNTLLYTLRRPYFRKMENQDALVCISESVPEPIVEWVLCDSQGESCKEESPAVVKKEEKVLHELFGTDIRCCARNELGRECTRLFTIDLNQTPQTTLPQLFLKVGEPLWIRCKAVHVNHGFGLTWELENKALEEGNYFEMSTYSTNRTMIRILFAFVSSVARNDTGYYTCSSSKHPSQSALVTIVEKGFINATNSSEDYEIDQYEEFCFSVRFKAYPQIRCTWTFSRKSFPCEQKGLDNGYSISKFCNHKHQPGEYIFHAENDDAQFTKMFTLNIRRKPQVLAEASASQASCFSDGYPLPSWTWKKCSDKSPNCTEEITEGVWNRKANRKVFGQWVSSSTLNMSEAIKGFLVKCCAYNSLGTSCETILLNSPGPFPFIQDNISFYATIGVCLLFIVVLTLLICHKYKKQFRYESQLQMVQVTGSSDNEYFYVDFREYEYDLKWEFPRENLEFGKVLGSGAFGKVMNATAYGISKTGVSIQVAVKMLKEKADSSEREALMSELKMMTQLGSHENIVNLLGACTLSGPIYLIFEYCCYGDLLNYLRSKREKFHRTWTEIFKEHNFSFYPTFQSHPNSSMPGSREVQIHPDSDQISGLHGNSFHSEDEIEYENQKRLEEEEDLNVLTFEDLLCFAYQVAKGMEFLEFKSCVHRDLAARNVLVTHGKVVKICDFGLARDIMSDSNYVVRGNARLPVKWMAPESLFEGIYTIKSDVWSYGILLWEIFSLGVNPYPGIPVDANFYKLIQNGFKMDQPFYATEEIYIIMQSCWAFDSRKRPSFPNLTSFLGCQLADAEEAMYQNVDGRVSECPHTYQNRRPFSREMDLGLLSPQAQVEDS

[6] = target: Glycogen synthase kinase-3 beta (Homo sapiens, UniProt P49841); experiment: Inhibition of GSK3beta (unknown origin); type: toxicity
92-1 [7] = experiment: Antitumor activity against human 92-1 cells xenografted in mouse assessed as tumor suppression at 120 mg/kg, bid; type: functional, organism-based
[8] = target: Protein kinase C eta type (Homo sapiens, UniProt P24723); experiment: Inhibition of PKCeta (unknown origin)
[9] = target: Protein kinase C gamma type (Homo sapiens, UniProt P05129); experiment: Inhibition of PKCgamma (unknown origin)
[10] = target: Protein kinase C delta type (Homo sapiens, UniProt Q05655); experiment: Inhibition of PKCdelta (unknown origin)
[11] = target: T3, Protein kinase C epsilon type (Homo sapiens, UniProt Q02156); experiment: Inhibition of PKCepsilon (unknown origin)
T3 sequence (Q02156 whole entry): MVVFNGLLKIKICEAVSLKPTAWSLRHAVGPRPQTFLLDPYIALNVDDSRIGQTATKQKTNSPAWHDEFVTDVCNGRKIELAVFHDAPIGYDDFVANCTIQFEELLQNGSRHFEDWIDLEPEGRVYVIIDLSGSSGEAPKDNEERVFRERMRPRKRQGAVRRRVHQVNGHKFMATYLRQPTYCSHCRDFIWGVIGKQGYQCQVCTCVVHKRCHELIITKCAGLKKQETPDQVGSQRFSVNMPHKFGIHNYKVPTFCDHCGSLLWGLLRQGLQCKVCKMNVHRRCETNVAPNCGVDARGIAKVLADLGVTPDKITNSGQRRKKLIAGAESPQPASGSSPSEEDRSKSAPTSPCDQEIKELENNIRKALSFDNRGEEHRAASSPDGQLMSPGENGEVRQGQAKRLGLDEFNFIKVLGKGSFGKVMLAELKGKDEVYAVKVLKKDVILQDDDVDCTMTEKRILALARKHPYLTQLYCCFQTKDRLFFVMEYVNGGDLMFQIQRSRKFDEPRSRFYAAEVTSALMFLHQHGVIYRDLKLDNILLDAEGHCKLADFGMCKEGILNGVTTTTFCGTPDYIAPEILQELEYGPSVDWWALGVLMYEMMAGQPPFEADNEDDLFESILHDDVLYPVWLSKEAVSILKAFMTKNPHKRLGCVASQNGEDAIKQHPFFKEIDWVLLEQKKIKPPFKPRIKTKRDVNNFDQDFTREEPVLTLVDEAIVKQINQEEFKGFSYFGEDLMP

[12] = target: T1, Protein kinase C theta type; experiment: Inhibition of PKCtheta (unknown origin)
SK-MEL-28 = experiment: cells; conditions: Homo sapiens
92-1 [13] = experiment: Antitumor activity against human 92-1 cells xenografted in mouse assessed as tumor suppression at 100 mg/kg, qd; type: functional, organism-based
[14] = Toxicity in mouse xenografted with human 92-1 cells assessed as abdominal distention at 100 mg/kg, qd after 1 week; type: organism-based; conditions: in vivo, 168 h, time 1 weeks
[15] = Toxicity in mouse xenografted with human 92-1 cells assessed as body weight loss at 100 mg/kg, qd measured upto 15 days; type: organism-based; conditions: in vivo, 360 h, time < 15 day
[16] = Toxicity in mouse xenografted with human 92-1 cells assessed as enlarged GI track at 100 mg/kg, qd measured upto 15 days; type: organism-based; conditions: in vivo, 360 h, time < 15 day

Chain of 5-hydroxytryptamine receptor 2B (P41595 whole entry): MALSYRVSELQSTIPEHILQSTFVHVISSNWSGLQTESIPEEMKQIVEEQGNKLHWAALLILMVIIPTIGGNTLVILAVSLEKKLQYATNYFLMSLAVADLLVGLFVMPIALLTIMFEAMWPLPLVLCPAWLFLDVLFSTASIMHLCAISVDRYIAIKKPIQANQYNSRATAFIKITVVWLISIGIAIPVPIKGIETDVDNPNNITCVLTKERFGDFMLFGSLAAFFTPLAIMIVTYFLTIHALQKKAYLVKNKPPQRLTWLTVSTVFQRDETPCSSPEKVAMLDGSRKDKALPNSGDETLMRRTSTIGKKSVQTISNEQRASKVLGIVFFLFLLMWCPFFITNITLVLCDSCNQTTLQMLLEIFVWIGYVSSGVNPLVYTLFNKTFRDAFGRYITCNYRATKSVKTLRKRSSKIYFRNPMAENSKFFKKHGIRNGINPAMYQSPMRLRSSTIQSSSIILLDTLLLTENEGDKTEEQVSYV
Chain of Glycogen synthase kinase-3 beta (P49841 whole entry): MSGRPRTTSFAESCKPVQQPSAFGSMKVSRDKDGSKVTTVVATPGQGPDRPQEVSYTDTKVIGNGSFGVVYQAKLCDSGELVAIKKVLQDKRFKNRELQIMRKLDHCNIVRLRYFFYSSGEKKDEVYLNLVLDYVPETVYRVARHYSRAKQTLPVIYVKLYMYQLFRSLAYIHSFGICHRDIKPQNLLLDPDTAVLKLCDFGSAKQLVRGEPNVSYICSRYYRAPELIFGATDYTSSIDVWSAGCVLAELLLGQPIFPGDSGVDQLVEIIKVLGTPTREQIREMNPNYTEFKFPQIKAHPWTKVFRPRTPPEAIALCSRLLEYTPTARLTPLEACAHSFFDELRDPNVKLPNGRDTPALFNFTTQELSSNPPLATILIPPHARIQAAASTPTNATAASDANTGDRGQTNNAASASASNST
T1 sequence (Q04759 whole entry): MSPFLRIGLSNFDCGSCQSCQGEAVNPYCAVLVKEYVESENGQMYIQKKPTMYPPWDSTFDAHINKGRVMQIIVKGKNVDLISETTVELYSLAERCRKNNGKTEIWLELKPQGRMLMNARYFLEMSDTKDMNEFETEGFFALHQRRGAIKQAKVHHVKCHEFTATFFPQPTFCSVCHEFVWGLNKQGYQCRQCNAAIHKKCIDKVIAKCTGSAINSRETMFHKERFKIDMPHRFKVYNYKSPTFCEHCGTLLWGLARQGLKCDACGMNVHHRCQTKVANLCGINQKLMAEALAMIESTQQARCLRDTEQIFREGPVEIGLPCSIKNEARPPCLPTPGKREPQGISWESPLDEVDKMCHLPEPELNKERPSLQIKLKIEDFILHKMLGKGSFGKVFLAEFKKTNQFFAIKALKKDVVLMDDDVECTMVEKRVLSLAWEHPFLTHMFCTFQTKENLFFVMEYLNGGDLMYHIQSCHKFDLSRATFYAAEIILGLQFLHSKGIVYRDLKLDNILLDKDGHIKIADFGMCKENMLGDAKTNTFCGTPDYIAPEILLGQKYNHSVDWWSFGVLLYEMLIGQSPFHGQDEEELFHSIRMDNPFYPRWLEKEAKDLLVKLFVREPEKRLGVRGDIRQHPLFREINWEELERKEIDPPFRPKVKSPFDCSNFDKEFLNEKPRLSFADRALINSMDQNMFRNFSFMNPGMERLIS
Chain of Protein kinase C eta type (P24723 whole entry): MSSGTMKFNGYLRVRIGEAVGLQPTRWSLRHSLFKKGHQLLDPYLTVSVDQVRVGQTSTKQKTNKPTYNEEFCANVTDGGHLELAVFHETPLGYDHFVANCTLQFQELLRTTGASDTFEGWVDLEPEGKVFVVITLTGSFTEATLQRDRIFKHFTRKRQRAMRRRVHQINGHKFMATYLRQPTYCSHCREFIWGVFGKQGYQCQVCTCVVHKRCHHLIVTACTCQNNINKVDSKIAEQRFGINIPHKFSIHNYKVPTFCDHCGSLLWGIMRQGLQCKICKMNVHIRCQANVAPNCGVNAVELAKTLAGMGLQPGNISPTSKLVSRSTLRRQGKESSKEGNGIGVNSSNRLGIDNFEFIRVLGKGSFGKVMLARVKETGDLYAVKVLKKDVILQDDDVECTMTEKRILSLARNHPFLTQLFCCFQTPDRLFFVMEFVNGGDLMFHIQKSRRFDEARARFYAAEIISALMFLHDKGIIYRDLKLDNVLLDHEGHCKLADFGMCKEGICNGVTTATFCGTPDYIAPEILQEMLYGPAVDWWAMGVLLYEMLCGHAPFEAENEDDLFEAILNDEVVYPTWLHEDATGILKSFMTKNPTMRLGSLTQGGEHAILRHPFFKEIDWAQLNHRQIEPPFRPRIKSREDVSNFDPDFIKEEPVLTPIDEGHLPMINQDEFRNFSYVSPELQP
Chain of Protein kinase C delta type (Q05655 whole entry): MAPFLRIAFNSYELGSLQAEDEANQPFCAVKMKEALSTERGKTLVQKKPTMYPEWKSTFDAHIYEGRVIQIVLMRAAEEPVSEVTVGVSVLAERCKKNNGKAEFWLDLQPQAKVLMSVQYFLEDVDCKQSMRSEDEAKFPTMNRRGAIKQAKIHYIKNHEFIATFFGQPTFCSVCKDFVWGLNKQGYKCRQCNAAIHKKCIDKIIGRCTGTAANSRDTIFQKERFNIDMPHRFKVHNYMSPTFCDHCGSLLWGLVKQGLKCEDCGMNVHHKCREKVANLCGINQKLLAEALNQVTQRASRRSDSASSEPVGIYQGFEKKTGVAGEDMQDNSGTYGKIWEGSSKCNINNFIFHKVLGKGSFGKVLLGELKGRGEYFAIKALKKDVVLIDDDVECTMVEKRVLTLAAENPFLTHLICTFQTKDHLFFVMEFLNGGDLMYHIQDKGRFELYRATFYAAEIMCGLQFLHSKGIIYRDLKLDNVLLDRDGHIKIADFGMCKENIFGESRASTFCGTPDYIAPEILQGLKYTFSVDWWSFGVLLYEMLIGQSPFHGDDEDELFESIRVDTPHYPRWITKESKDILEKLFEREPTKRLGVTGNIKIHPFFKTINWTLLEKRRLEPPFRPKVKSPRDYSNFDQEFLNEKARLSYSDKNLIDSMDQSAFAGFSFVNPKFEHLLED

Row | SMILES | EC50 (cells) [nM] | IC50 [4] [nM] | EC50 [1] [nM] | IC50 [5] [nM] | IC50 [6] [nM] | further results
1 | CO[C@H]1CN(c2ccncc2NC(=O)c2nc(-c3ncccc3OC(F)(F)F)cnc2N)CC[C@@H]1N |  | 2 |  |  |  | IC50 [3]: 0.2 nM; IC50 (cells): 140 nM
2 | Nc1ncc(-c2ncccc2C(F)(F)F)nc1C(=O)Nc1ncccc1N1CCC(N)CC1 |  |  | 160 | 8700 |  | 
3 | Nc1ncc(-c2ncccc2OC(F)(F)F)nc1C(=O)Nc1ncccc1N1CCC(N)C(F)C1 (stereo not drawn) | 153 |  | 43 |  |  | pKa [2]: 7.6
4 | Nc1ncc(-c2cccc3[nH]ncc23)nc1C(=O)Nc1ncccc1N1CCC(N)CC1 |  |  |  | 31 | 41 | 
5 | Nc1ncc(-c2ncccc2F)nc1C(=O)Nc1ncccc1N1CCC(N)CC1 |  |  | 41 |  |  | 
6 | Nc1ncc(-c2ncccc2C(F)(F)F)nc1C(=O)Nc1cccnc1N1CCC(N)CC1 | 3660 | 69 |  | 3000 | 6900 | IC50 [3]: 43 nM
7 | Nc1ncc(-c2nc(N3CCOCC3)ccc2C(F)(F)F)nc1C(=O)Nc1ncccc1N1CCC(N)CC1 |  |  | 150 | 230 |  | 
8 | CN1CCN(c2nc(C3=C(c4c[nH]c5ccccc45)C(=O)NC3=O)c3ccccc3n2)CC1 [SOTRASTAURIN] |  | 0.3 |  |  |  | Activity (92-1 [7]): Active; IC50 [8]: 5.9 nM; IC50 [9]: 64 nM; IC50 [10]: 6 nM; IC50 [11]: 5.4 nM; IC50 [12]: 2.1 nM; IC50 (cells): 250 nM; IC50 (SK-MEL-28): > 10000 nM
9 | Nc1ncc(-c2ncccc2OC(F)(F)F)nc1C(=O)Nc1cnccc1N1CCC(N)CC1 | 36 |  |  | 230 | 10 | Activity (92-1 [13]): Active; Activity [14]: Toxic; Activity [15]: Toxic; Activity [16]: Toxic
10 | Nc1ncc(-c2nc(N3CCC3)ccc2C(F)(F)F)nc1C(=O)Nc1ncccc1N1CCC(N)CC1 |  |  |  | 140 | 2900 | 
11 | Nc1ncc(-c2ncnc3sccc23)nc1C(=O)Nc1ncccc1N1CCC(N)CC1 |  |  |  | 4100 | 710 | 
12 | Nc1ncc(-c2ncccc2OC(F)(F)F)nc1C(=O)Nc1ncccc1N1CCC(N)CC1 | 180 |  | 200 | 8460 |  | pKa [2]: 8.9
13 | Nc1ncc(-c2ncccc2OC(F)(F)F)nc1C(=O)Nc1ccncc1N1CCC(N)CC1 | 230 | 1.3 |  | 30 | 530 | IC50 [3]: 0.4 nM
14 | CNc1ncc(-c2ncccc2OC(F)(F)F)nc1C(=O)Nc1cnccc1N1CCC(N)CC1 |  |  |  |  |  | Activity [14]: Non-Toxic; Activity [15]: Non-Toxic; Activity [16]: Non-Toxic; IC50 (cells): 3700 nM

Continued, in another order:

Row | EC50 (cells) [nM] | IC50 [4] [nM] | SMILES | EC50 [1] [nM] | IC50 [5] [nM] | IC50 [6] [nM] | further results
15 | 2800 |  | COC1CN(c2cccnc2NC(=O)c2nc(-c3ncccc3OC(F)(F)F)cnc2N)CCC1N (trans isomer) | > 30000 |  |  | pKa [2]: 8
16 | 1390 | 3 | Nc1ncc(-c2ncccc2C(F)(F)F)nc1C(=O)Nc1ncccc1N1C[C@H]2CC[C@@H](C1)[C@@H]2N | > 30000 |  |  | IC50 [3]: 10 nM; pKa [2]: 9.4
17 | 22 |  | Nc1ncc(-c2nc(N3CCOCC3)cc3ccccc23)nc1C(=O)Nc1ncccc1N1CCC(N)CC1 | 160 |  |  | 
18 | 11 |  | Nc1ncc(-c2cccc3[nH]ccc23)nc1C(=O)Nc1ncccc1N1CCC(N)CC1 | 780 | 33 | 19 | 
19 | 66 |  | CN(C)c1ccc(C(F)(F)F)c(-c2cnc(N)c(C(=O)Nc3ncccc3N3CCC(N)CC3)n2)n1 |  | 95 | 2700 | 
20 | 1740 | 10 | Nc1ncc(-c2ncccc2OC(F)(F)F)nc1C(=O)Nc1ncccc1N1CCC(N)C(F)(F)C1 (stereo not drawn) | 2000 |  |  | IC50 [3]: 11 nM; pKa [2]: 6
